Experimental data from article PMC5845004, “Novel (p)ppGpp Binding and Metabolizing Proteins of Escherichia coli” (mBio, 2018).
Entries after “also recorded” stand apart in the source; their conditions may differ.

Experiments:
GppA = test system: GppA; design: method as in Table S1 (17); conditions: ref Table S1 (17); cited from earlier work
SaDer = SaDer (Staphylococcus aureus, UniProt A6QH24); experiment: DRaCALA Kd determination, SaDer; format: binding, S. aureus
Procedure: For Kd measurements by DRaCALA, 2-fold serial dilutions from the highest possible concentrations of each purified protein were prepared in binding buffer B, and approximately 2 nM concentrations of α-^32P-labeled ppGpp, pppGpp, GTP, and GDP were added. The mixtures were incubated for 5 min at RT before spotting of 2 µl of the reaction mixtures onto nitrocellulose membranes. The fractions of bound ligand and the apparent Kd values were calculated as previously described ([37]).

LdcC = target: LdcC; design: method as in Table S1 (19); conditions: ref Table S1 (19); cited from earlier work
EF-Tu = target: EF-Tu; design: method as in Table S1 (9); conditions: ref Table S1 (9); cited from earlier work
SpeC = target: SpeC; design: method as in Table S1 (19); conditions: ref Table S1 (19); cited from earlier work
RelA = test system: RelA; design: method as in ref 36 (Table S1 ref 16); conditions: ref 36 (Table S1 ref 16); cited from earlier work
Apt = Apt (Escherichia coli, UniProt P69503); conditions: cited from earlier work
Apt, sequence (P69503 whole entry): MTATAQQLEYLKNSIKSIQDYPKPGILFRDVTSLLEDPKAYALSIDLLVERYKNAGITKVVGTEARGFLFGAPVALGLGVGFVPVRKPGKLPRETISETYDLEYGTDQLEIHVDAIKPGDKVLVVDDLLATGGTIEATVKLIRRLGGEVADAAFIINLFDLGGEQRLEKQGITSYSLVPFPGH

[1] = target: SaRF3 (PrfC from S. aureus) (Staphylococcus aureus, UniProt A6QFN0); experiment: DRaCALA binding, SaRF3; conditions: 12 µM protein
SaRF3 (PrfC from S. aureus), sequence (A6QFN0 whole entry): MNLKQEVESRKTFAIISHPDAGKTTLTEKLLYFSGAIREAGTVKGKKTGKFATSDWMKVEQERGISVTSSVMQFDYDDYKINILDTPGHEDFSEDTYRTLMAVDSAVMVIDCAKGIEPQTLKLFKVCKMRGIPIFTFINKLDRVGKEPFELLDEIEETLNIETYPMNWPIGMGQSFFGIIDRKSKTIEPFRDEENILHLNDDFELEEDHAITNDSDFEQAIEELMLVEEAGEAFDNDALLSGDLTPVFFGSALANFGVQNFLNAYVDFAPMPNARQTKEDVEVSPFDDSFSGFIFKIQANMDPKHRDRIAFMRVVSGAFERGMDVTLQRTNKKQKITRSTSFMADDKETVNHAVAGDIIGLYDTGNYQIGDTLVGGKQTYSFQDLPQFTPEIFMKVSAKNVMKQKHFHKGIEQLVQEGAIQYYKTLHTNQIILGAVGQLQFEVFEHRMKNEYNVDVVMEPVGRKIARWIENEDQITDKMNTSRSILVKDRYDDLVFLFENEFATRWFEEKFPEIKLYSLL

SaDer, sequence (A6QH24 whole entry): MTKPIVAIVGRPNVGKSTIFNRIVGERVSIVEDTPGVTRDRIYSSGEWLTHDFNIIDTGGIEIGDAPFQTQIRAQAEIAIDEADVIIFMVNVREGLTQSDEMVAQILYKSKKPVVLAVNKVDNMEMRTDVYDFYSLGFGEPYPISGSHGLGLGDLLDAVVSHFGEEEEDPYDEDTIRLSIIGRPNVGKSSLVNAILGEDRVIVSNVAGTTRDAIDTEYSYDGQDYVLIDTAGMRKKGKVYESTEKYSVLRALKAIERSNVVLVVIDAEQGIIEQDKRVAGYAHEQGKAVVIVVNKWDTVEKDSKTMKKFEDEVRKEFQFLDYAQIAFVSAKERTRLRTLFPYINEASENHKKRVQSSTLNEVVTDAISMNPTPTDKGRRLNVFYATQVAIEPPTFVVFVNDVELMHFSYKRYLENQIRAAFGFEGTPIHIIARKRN

SMILES	conversion by GppA (GppA)	Kd (SaDer) [µM]	Kd (LdcC) [µM]	Ki (EF-Tu) [µM]	Kd (SpeC) [µM]	effect on RelA activity (RelA)	IC50 (Apt) [µM]	binding to SaRF3 [1]
Nc1nc2c(ncn2[C@@H]2O[C@H](COP(=O)(O)OP(=O)(O)OP(=O)(O)O)[C@@H](OP(=O)(O)OP(=O)(O)O)[C@H]2O)c(=O)[nH]1 [pppGpp, guanosine pentaphosphate]	Convert pppGpp to ppGpp; (17)	–	–	–	–	–	–	–
Nc1nc2c(ncn2[C@@H]2O[C@H](COP(=O)(O)OP(=O)(O)O)[C@@H](OP(=O)(O)OP(=O)(O)O)[C@H]2O)c(=O)[nH]1 [ppGpp, guanosine tetraphosphate]	–	3.8 ± 0.5	0.1 to 0.5	60	0.598 ± 0.068	allosterically stimulates	~1500	very weak binding (if any); also recorded: No binding of ppGpp by 12 µM of PrfC from S. aureus
